Values of other authors as cited in publication PMC6831561, “Pharmacological and Behavioral Effects of the Synthetic Cannabinoid AKB48 in Rats” (Frontiers in Neuroscience, 2019).
Like-named read-outs stand apart in the source and are kept apart here.

Test system: extracellular DA levels
Conditions: ref De Luca et al., 2015, cited from earlier work

## CCCCCn1cc(C(=O)c2cccc3ccccc23)c2ccccc21 [JWH-018, Naphthalen-1-yl-(1-pentylindol-3-yl)methanone]
JWH-018 0.25 mg/kg ip, from 20 to 70 min, Miliano et al., 2016
  max increase of DA in the NAc shell: about 60%
JWH-018 0.25 mg/kg
  DA release in the NAc shell: increased DA release
JWH-018 high doses (1 and 3 mg/kg)
  DA release in the NAc shell: no effect
JWH-018 lower (0.125 mg/kg) and higher (0.50 mg/kg) doses
  DA release in the NAc shell: ineffective
